In patent US9403843B2, “Cysteine protease inhibitors and uses thereof” (The Trustees of Columbia University in the City of New York, priority 2012, dated 2016):
“Also recorded” adds a separate entry of the source. Where two headings read alike, the source gives them in different places.

Columns and labels:
full-length human Cal1 [1] = molecular target: T1, full-length human Cal1 (Homo sapiens (Human), UniProt P07384); assay: Calpain inhibition FRET assay; assay type: biochemical; conditions: for IC50: Table 2, approximate IC50, read-out: Cal I IC50
Procedure: Calpain activity was measured using full-length human Cal1 in the presence of a FRET substrate. IC50 values were approximated by co-incubation of varying concentrations of the appropriate inhibitor (10, 100, 500, 1000 nM) in the presence of the FRET substrate (DABCYL)TPLK-SPPSPR-(EDANS) (SEQ ID NO: 5) and activation buffer. […] A peptide inhibitor, Z-LLY-FMK (SEQ ID NO: 6), was used as a positive control.
The Calbiochem InnoZyme activity kit was used for measuring the inhibition effect inhibitors on human erythrocyte calpain 1 activity. […] 20 μM of the FRET substrate, 10 nM of native Cal1, and 20 μM TCEP (reducing agent) were added to the reaction mixture containing assay buffer (Tris [10 mM], NaCl [100 mM], pH 7.4). Cal1 was activated by the addition of 10 μM calcium. Cleavage of the scissile bond amide bond, K-S, releases the fluorophore (EDANS) from the internal quenching molecule (DABCYL), resulting in an increase in fluorescence measured at 320 nm excitation and 480 nm emission wave lengths for 30 min. Each inhibitor was added to the reaction mixture at varying concentrations (10 nM, 100 nM, 1 μM, and 10 μM) to detect inhibition of Cal1 and reduction in fluorescence was measured by 96 well-plate reader. Approximate IC50 values of each compound were generated using linear regression within Graphpad Prism Software.

full-length human Cal1 [2] = molecular target: T1, full-length human Cal1; assay: Calpain inhibition FRET assay; assay type: biochemical; conditions: Table 3, 20 min incubation, FRET substrate
[3] = >1: inhibition not quantifiable at 1 μM

T1 sequence (P07384 whole entry): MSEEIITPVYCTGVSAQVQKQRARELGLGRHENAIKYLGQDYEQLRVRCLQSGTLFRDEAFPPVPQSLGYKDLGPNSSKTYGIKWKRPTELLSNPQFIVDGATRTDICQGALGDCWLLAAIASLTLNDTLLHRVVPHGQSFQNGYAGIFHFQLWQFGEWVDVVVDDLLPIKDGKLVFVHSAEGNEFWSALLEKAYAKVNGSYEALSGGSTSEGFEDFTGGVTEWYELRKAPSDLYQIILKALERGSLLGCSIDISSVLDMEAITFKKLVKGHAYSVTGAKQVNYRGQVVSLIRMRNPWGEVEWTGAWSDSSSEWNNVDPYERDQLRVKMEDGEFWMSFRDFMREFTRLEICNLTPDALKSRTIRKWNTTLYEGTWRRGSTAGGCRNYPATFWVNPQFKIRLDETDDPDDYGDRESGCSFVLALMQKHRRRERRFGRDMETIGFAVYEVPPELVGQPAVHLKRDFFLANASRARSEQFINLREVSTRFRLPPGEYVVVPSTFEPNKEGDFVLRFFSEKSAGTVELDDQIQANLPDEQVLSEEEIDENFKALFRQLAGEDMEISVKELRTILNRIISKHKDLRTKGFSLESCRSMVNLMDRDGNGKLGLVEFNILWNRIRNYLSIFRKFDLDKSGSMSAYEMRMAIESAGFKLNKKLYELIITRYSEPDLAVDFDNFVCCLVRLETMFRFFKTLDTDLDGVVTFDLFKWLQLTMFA
T1 sequence (P04632 whole entry partner): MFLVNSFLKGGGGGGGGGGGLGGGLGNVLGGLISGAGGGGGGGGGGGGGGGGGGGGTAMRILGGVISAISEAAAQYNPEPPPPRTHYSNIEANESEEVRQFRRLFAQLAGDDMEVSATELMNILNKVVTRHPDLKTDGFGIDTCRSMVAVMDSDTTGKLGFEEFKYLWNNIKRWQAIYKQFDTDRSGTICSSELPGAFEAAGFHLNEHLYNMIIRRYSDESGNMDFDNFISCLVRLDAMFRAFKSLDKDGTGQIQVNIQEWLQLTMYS

SMILES	IC50 (full-length human Cal1 [1]) [µM]	other results
CC(C)C[C@H](NC(=O)[C@H]1O[C@@H]1C(=O)O)C(=O)NCCCCNS(=O)(=O)c1ccc(F)cc1 [Compound 68]	0.1	
CCOC(=O)[C@H]1O[C@@H]1C(=O)N[C@@H](Cc1cnc[nH]1)C(=O)Nc1ccccc1 [Compound 85]	> 10	
O=C(NCc1cn(-c2ccc([N+](=O)[O-])cc2)nn1)[C@H](Cc1cscn1)NC(=O)[C@H]1O[C@@H]1C(=O)O [Compound 56, (2S,3S)-3-((S)-1-((1-(4-nitrophenyl)-1H-1,2,3-triazol-4-yl)methylamino)-1-oxo-3-(thiazol-4-yl)propan-2-ylcarbamoyl)oxirane-2-carboxylic acid]		Cal1 inhibition (in words) (full-length human Cal1 [1]): potent activity; IC50 (full-length human Cal1 [2]): 0.3 µM
O=C(NCc1cn(-c2ccc(S(=O)(=O)N3CCCCC3)cc2)nn1)[C@H](Cc1cscn1)NC(=O)[C@H]1O[C@@H]1C(=O)O [Compound 51, (2S,3S)-3-((S)-1-oxo-1-((1-(4-(piperidin-1-ylsulfonyl)phenyl)-1H-1,2,3-triazol-4-yl)methylamino)-3-(thiazol-4-yl)propan-2-ylcarbamoyl)oxirane-2-carboxylic acid]		IC50 (full-length human Cal1 [2]; [3]): 1.5 µM
O=C(Nc1ccccc1)[C@H](Cc1cscn1)NC(=O)[C@H]1O[C@@H]1C(=O)O [Compound 32, (2S,3S)-3-((S)-1-oxo-1-(phenylamino)-3-(thiazol-4-yl)propan-2-ylcarbamoyl)oxirane-2-carboxylic acid]		IC50 (full-length human Cal1 [2]; [3]): 2.5 µM
O=C(Nc1nc2ccc(F)cc2s1)[C@H](Cc1c[nH]cn1)NC(=O)[C@@H]1O[C@H]1C(=O)O [Compound 31b, (2R,3R)-3-((S)-1-(6-fluorobenzo[d]thiazol-2-ylamino)-3-(1H-imidazol-4-yl)-1-oxopropan-2-ylcarbamoyl)oxirane-2-carboxylic acid]	> 1	IC50 (full-length human Cal1 [2]; [3]): > 1 µM
CC(C)C[C@H](NC(=O)[C@@H]1O[C@H]1C(=O)O)C(=O)Nc1c(F)cccc1F [Compound 23b, (2R,3R)-3-((S)-1-(2,6-difluorophenylamino)-4-methyl-1-oxopentan-2-ylcarbamoyl)oxirane-2-carboxylic acid]	> 1	Cal1 inhibition (in words) (full-length human Cal1 [1]): not observed; IC50 (full-length human Cal1 [2]; [3]): > 1 µM
CCOC(=O)[C@H]1O[C@@H]1C(=O)N[C@@H](CC(C)C)C(=O)Nc1c(F)cccc1F [Compound 81]	> 1	
O=C(NCc1cn(-c2ccccc2)nn1)[C@H](Cc1cscn1)NC(=O)[C@H]1O[C@@H]1C(=O)O [Compound 49, (2S,3S)-3-((S)-1-oxo-1-((1-phenyl-1H-1,2,3-triazol-4-yl)methylamino)-3-(thiazol-4-yl)propan-2-ylcarbamoyl)oxirane-2-carboxylic acid]		IC50 (full-length human Cal1 [2]; [3]): 1 µM
CCOC(=O)[C@H]1O[C@@H]1C(=O)N[C@@H](CC(C)C)C(=O)N(C)c1nc(-c2ccc(F)cc2)cs1 [Compound 71]	> 1	
CCOC(=O)[C@@H]1O[C@H]1C(=O)NCc1ccc(CO)cc1 [Compound 79]	> 1	
C#CCNC(=O)[C@H](CC(C)C)NC(=O)C1OC1c1ccccc1 (stereo partly drawn) [Compound 60]	> 1	
CC(C)C[C@H](NC(=O)C1OC1c1ccccc1)C(=O)NCCCCNC(=N)N (stereo partly drawn) [Compound 65]	> 1	
CCOC(=O)[C@@H]1O[C@H]1C(=O)NC(C)C [Compound 73]	> 1	
CCOC(=O)[C@H]1O[C@@H]1C(=O)NC1(C(=O)NCCCCNS(=O)(=O)c2ccc(F)cc2)CCCCC1 [Compound 69]	> 1	
CCOC(=O)[C@H]1OC1C(=O)N[C@@H](CC(C)C)C(=O)NCCCCNS(=O)(=O)c1ccc(F)cc1 (stereo partly drawn) [Compound 63]	> 1	
CCOC(=O)[C@H]1O[C@@H]1C(=O)N[C@@H](CC(C)C)C(=O)Nc1nc(-c2ccc(F)cc2)cs1 [Compound 70]	> 1	
CCOC(=O)[C@H]1O[C@@H]1C(=O)NCc1ccc(CO)cc1 [Compound 82]	> 1	
CCOC(=O)[C@@H]1O[C@H]1C(=O)N[C@@H](Cc1cnc[nH]1)C(=O)Nc1nc(-c2ccc(F)cc2)cs1 [Compound 77]	> 1	

Now from value to compound, other results behind:

IC50 (full-length human Cal1 [1]) [µM]	SMILES	other results
0.4	O=C(NCc1cn(-c2ccc3c(c2)OCO3)nn1)[C@H](Cc1cscn1)NC(=O)[C@H]1O[C@@H]1C(=O)O [Compound 52, (2S,3S)-3-((S)-1-((1-(benzo[d][1,3]dioxol-5-yl)-1H-1,2,3-triazol-4-yl)methylamino)-1-oxo-3-(thiazol-4-yl)propan-2-ylcarbamoyl)oxirane-2-carboxylic acid]	Cal1 inhibition (in words) (full-length human Cal1 [1]): potent activity
> 1	CCOC(=O)[C@@H]1O[C@H]1C(=O)N[C@@H](CC(C)C)C(=O)Nc1c(F)cccc1F [Compound 80]	
> 1	O=C(Nc1nc(-c2ccc(F)cc2)cs1)[C@H](Cc1c[nH]cn1)NC(=O)[C@@H]1O[C@H]1C(=O)O [Compound 30b, (2R,3R)-3-((S)-1-(4-(4-fluorophenyl)thiazol-2-ylamino)-3-(1H-imidazol-4-yl)-1-oxopropan-2-ylcarbamoyl)oxirane-2-carboxylic acid]	IC50 (full-length human Cal1 [2]; [3]): > 1 µM
> 1	CCOC(=O)[C@H]1O[C@@H]1C(=O)N[C@@H](Cc1cnc[nH]1)C(=O)Nc1nc(-c2ccc(F)cc2)cs1 [Compound 78]	
> 1	CC(C)NC(=O)[C@@H]1O[C@H]1C(=O)O [Compound 74]	
0.535	O=C(Nc1nc2ccc(F)cc2s1)[C@H](Cc1c[nH]cn1)NC(=O)[C@H]1O[C@@H]1C(=O)O [Compound 31a, (2S,3S)-3-((S)-1-(6-fluorobenzo[d]thiazol-2-ylamino)-3-(1H-imidazol-4-yl)-1-oxopropan-2-ylcarbamoyl)oxirane-2-carboxylic acid]	
> 1	O=C(O)[C@H]1O[C@@H]1C(=O)NCc1ccc(CO)cc1 [Compound 83]	
> 1	O=C(NCc1cn(-c2cc(C(F)(F)F)cc(C(F)(F)F)c2)nn1)[C@H](Cc1cscn1)NC(=O)[C@H]1O[C@@H]1C(=O)O [Compound 54, (2S,3S)-3-((S)-1-((1-(3,5-bis(trifluoromethyl)phenyl)-1H-1,2,3-triazol-4-yl)methylamino)-1-oxo-3-(thiazol-4-yl)propan-2-ylcarbamoyl)oxirane-2-carboxylic acid]	Cal1 inhibition (in words) (full-length human Cal1 [1]): relatively high IC50 values; also recorded: weak activity; IC50 (full-length human Cal1 [2]; [3]): > 1 µM
> 1	CCOC(=O)[C@@H]1O[C@H]1C(=O)N[C@@H](CC(C)C)C(=O)Nc1nc(-c2ccc(F)cc2)cs1 [Compound 75]	
> 1	O=C(NCc1cn(-c2c(F)cccc2F)nn1)[C@H](Cc1cscn1)NC(=O)[C@H]1O[C@@H]1C(=O)O [Compound 57, (2S,3S)-3-((S)-1-((1-(2,6-difluorophenyl)-1H-1,2,3-triazol-4-yl)methylamino)-1-oxo-3-(thiazol-4-yl)propan-2-ylcarbamoyl)oxirane-2-carboxylic acid]	Cal1 inhibition (in words) (full-length human Cal1 [1]): relatively high IC50 values; IC50 (full-length human Cal1 [2]; [3]): > 1 µM
0.05	CC(C)C[C@H](NC(=O)[C@H]1O[C@@H]1C(=O)O)C(=O)NCc1cn(-c2ccc(S(N)(=O)=O)cc2)nn1 [Compound 87]	
> 1	CCOC(=O)[C@H]1OC1C(=O)N[C@@H](CC(C)C)C(=O)NCCCCNC(=O)CCCC[C@@H]1SC[C@@H]2NC(=O)N[C@@H]21 (stereo partly drawn) [Compound 59]	
> 1	CCOC(=O)[C@@H]1O[C@H]1C(N)=O [Compound 76]	
> 1	CC(C)C[C@H](NC(=O)C1OC1c1ccccc1)C(=O)NCCCCNC(=O)CCCCC1CCSS1 (stereo partly drawn) [Compound 62]	
2.5	CCOC(=O)[C@H]1O[C@@H]1C(=O)N[C@@H](CC(C)C)C(=O)Nc1ccccc1 [Compound 84]	
0.03	CC(C)C[C@H](NC(=O)[C@H]1O[C@@H]1C(=O)O)C(=O)NCc1cn(-c2ccc(F)cc2)nn1 [Compound 86]	
5	O=C(Nc1ccccc1)[C@H](Cc1cnc[nH]1)NC(=O)[C@H]1O[C@@H]1C(=O)O [Compound 28, (2S,3S)-3-((S)-3-(1H-imidazol-4-yl)-1-oxo-1-(phenylamino)propan-2-ylcarbamoyl)oxirane-2-carboxylic acid]	
0.2	CC(C)C[C@H](NC(=O)[C@H]1O[C@@H]1C(=O)O)C(=O)N(C)c1nc(-c2ccc(F)cc2)cs1 [Compound 72]	
5	Cn1cncc1C[C@H](NC(=O)[C@H]1O[C@@H]1C(=O)O)C(=O)Nc1nc(-c2ccc(F)cc2)cs1 [Compound 35, (2S,3S)-3-((S)-1-(4-(4-fluorophenyl)thiazol-2-ylamino)-3-(1-methyl-1H-imidazol-5-yl)-1-oxopropan-2-ylcarbamoyl)oxirane-2-carboxylic acid]	
0.275	C#CCNC(=O)[C@H](CC(C)C)NC(=O)[C@H]1O[C@@H]1C(=O)O [Compound 88]	
5	Cc1cc(C)c(NC(=O)[C@H](Cc2cnc[nH]2)NC(=O)[C@H]2O[C@@H]2C(=O)O)c(C)c1 [Compound 29, (2S,3S)-3-((S)-3-(1H-imidazol-5-yl)-1-(mesitylamino)-1-oxopropan-2-ylcarbamoyl)oxirane-2-carboxylic acid]	
0.1	CC(C)C[C@H](NC(=O)[C@H]1O[C@@H]1C(=O)O)C(=O)Nc1ccccc1 [Compound 22, (2S,3S)-3-((S)-4-methyl-1-oxo-1-(phenylamino)pentan-2-ylcarbamoyl)oxirane-2-carboxylic acid]	
